These are literature values, as cited in patent US10934405B2, “Synthetic polymer film whose surface has microbicidal activity, plastic product which includes synthetic polymer film, sterilization method with use of surface of synthetic polymer film, photocurable resin composition, and manufacturing method of synthetic polymer film” (Sharp Kabushiki Kaisha, priority 2018, dated 2021).

For the series the following is noted: for Water Solubility: YES/NO, TABLE 1A and 1B.

Consider `C=COCCOCCOC(=O)C=C` [VEEA, 2-(2-vinyloxyethoxy)ethyl acrylate], for which the “Water Solubility” value was “YES”.

As to “polyethylene glycol (400) diacrylate [Example M280]”, the “Water Solubility” value is “YES”. Regarding “polyethylene glycol (200) diacrylate [Example M282]”, the “Water Solubility” value was “YES”. As for `Nc1nc2ncc(CNc3ccc(C(=O)N[C@@H](CCC(=O)O)C(=O)O)cc3)nc2c(=O)[nH]1` [folic acid], the “Water Solubility (symbol)” value (TABLE 6A and 6B) is recorded as “◯”.
